Data: article PMC5065130, “Functional Trade-Offs in Promiscuous Enzymes Cannot Be Explained by Intrinsic Mutational Robustness of the Native Activity” (PLoS Genetics, 2016)

Target: T1, wtPTE (Brevundimonas diminuta, UniProt P0A434)
T1 construct: gene opd; synthetic gene in pET-Strep vector, expressed in E. coli BL21 (DE3) with GroEL/ES, ZnCl2 in medium; clarified lysate
Assay: absorbance at […] nm, p-nitrophenolate release, initial rate in clarified lysate
Format: biochemical
Details: 180 uM substrate; Tris-HCl pH 7.5 lysis buffer, 0.1% Triton X-100; native activity

`CCOP(=O)(OCC)Oc1ccc([N+](=O)[O-])cc1` [paraoxon] was tested, and the “absorbance at 405 nm, p-nitrophenolate release, initial rate in clarified lysate” value was “wtPTE catalyzes the hydrolysis of paraoxon (PTE activity)”.
